Values joined by “and” are separate entries in the source; they are usually repeats but may differ in a detail not shown here. Equal entries are not always repeated.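 Results reflect a 48-hour exposure of cells in 96-well plates to compound at five concentrations. GI50 marks 50% less growth. TGI is the concentration that stops growth completely.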
What was measured:
Assay in all cases: inhibition of tumour cell growth, NCI panel, 48 h
[1] = test system: 786-0 renal
[2] = test system: A498 renal
[3] = test system: HCC-2998 colon
[4] = test system: IGROV1 ovarian
[5] = test system: OVCAR-4 ovarian
[6] = test system: SK-OV-3 ovarian
[7] = test system: BT-549 breast
[8] = test system: MDA-MB-231 breast
[9] = test system: NCI/ADR-RES ovarian
[10] = test system: UACC-257 melanoma

Structure (SMILES)	TGI [1]	TGI [2]	TGI [3]	TGI [4]	TGI [5]	TGI [6]	GI50 [1]	GI50 [2]	GI50 [7]	TGI [7]	GI50 [4]	GI50 [8]	TGI [8]	GI50 [9]	TGI [9]	GI50 [5]	GI50 [6]	GI50 [10]	TGI [10]	GI50 [3]
Cc1cc2nc3c(=O)[nH]c(=O)nc-3n(CC(O)C(O)C(O)CO)c2cc1N (stereo not given)	> 100 µM	> 100 µM	> 100 µM	> 100 µM	> 100 µM	> 100 µM	–	–	–	–	–	–	–	–	–	–	–	–	–	–
c1ccc(COCC[P+](c2ccccc2)(c2ccccc2)c2ccccc2)cc1	15.6 µM	5.93 µM	–	11.9 µM	12.2 µM	9.93 µM	3.49 µM	1.33 µM	0.953 µM	15.5 µM	1.08 µM	2.36 µM	14.2 µM	19.7 µM	57.1 µM	0.444 µM	2.33 µM	0.378 µM	3.77 µM	–
O=C1CC(C(=O)O)Cc2c(Br)ccc(O)c21 (stereo not given)	> 100 µM	–	> 100 µM	> 100 µM	> 100 µM	> 100 µM	–	–	–	> 100 µM	–	–	> 100 µM	–	> 100 µM	–	–	–	> 100 µM	–
C/C=C(\C)c1cc(=O)c2c(C)cc3c(c2o1)C(OC)(OC(C)=O)c1c(O)c(C2CC(C)(N(C)C)C(OC(C)=O)C(C)O2)cc(C2CC(N(C)C)C(OC(C)=O)C(C)O2)c1C3=O (stereo not given)	> 21.4 µM	3.49 µM	–	57.1 µM	–	8.59 µM	–	–	–	7.47 µM	–	–	1.49 µM	–	> 25.7 µM	–	–	–	–	–
N#CCCN(C1=NN(C(=O)CC(=O)Nc2ccc(Cl)cc2)C(c2ccccc2)C1)c1ccc(Cl)cc1 (stereo not given)	> 100 µM	> 100 µM	> 100 µM	> 100 µM	> 100 µM	–	–	–	–	–	–	–	–	–	–	–	–	–	> 100 µM	–
O=C1c2cccc([N+](=O)[O-])c2C(=O)c2nccnc21	3.2 µM	17.3 µM	6.17 µM	–	2.8 µM	–	–	–	–	–	–	–	–	–	–	–	–	–	1.66 µM	–
CS(=O)(=O)O[C@H]1C(=O)N(c2cc3c4ccccc4ccc3c3ccccc23)[C@@H]1c1ccccn1	31.7 µM	–	> 100 µM	> 100 µM	> 100 µM	> 100 µM	0.348 µM	–	0.501 µM	9.79 µM	2.14 µM	1.07 µM	14 µM	0.523 µM	> 100 µM	1.62 µM	0.627 µM	16.9 µM	> 100 µM	1.25 µM
CCOC(=O)C1=C(C)NC(C)=C(C(=O)OCCNC(=O)c2ccc(N=[N+]=[N-])cc2)C1c1ccccc1C(F)(F)F (stereo not given)	21.5 µM	–	21.5 µM	21.5 µM	21.5 µM	21.5 µM	–	–	–	68.2 µM	–	–	21.5 µM	–	21.5 µM	–	–	–	21.5 µM	–
CC(=O)NC(CS)C(=O)O (stereo not given)	> 100 µM and 58100 µM	18500 µM	> 100 µM and 50800 µM	16600 µM	> 100 µM	> 100 µM	> 100 µM	–	–	> 100 µM	–	–	–	> 100 µM	> 100 µM and 81500 µM	> 100 µM	> 100 µM	> 100 µM	> 100 µM	> 100 µM
O=C(O)CCC(=O)Oc1ccc(O)c2c1CCCC2=O	> 100 µM	> 100 µM	> 100 µM	> 100 µM	> 100 µM	> 100 µM	–	–	–	–	–	–	–	–	–	–	–	–	> 100 µM	–

Source: PubChem BioAssay (NCI)
